{
  "source": "patent US4594339A",
  "about": "“Anti-herpes virus compositions containing 5-substituted 1-2'(deoxy-2-'-substituted-β-d-arabinofuranosyl)pyrimedene nucleosides” (priority 1984, dated 1986)",
  "key": {"[1]": {"system": "Herpes Simplex Virus type 1", "experiment": "Inhibition of Herpes Simplex Virus type 1 replication", "format": "cell-based", "method": "(§1) Compounds of the invention show anti-viral and anti-tumor activity. 1-(2-Deoxy-2-fluoro-β-D-arabinofuranosyl)-5-iodocytosine inhibits Herpes Simplex Virus type 1 and type 2 replication. HFEM, Patton, 2931, and F-strain HSV-1 and 333 and G-strain HSV-2 are effected at concentrations of 1-(2-deoxy-2-fluoro-β-D-arabinofuranosyl)-5-iodocytosine 0.01μM (approximately 0.004 μg/ml).\n(§2) The effective doses for 1-(2-deoxy-2-fluoro-β-D-arabinofuranosyl)-5-iodocytosine are given below. 1-(2-deoxy-2-fluoro-β-D-arabinofuranosyl)-5-iodocytosine is diluted in physiological saline, filter sterilized, and inoculated. This compound is readily soluble at concentrations of 25 mg/ml in saline. In mouse studies, the drug is inoculated by the intraperitoneal route."}, "herpes zoster virus": {"system": "herpes zoster virus", "experiment": "Anti-viral activity against herpes zoster virus", "format": "cell-based"}, "[2]": {"system": "viral versus the cellular enzymes (TK and DNA polymerase)", "experiment": "Direct testing of interaction with the viral versus the cellular enzymes", "format": "biochemical", "conditions": "FIAC or its triphosphate"}, "HSV-1 strain 2931": {"system": "HSV-1 strain 2931", "experiment": "In vivo HSV-1 infection of A/J mice", "conditions": "for mice that survived the 21 day experiment: starting 24 hours after inoculation, intraperitoneal", "method": "as §2\n1-(2-deoxy-2-fluoro-β-D-arabinofuranosyl)-5-iodocytosine was also shown to be active in vivo. A/J mice were inoculated with approximately 50 LD50 of HSV-1 strain 2931 intraperitoneally and then treated with 1-(2-deoxy-2-fluoro-β-D-arabinofuranosyl)-5-iodocytosine starting 24 hours later. 1-(2-deoxy-2-fluoro-β-D-arabinofuranosyl)-5-iodocytosinewas given at 10 and 1 mg/kg/da for 5 days. Untreated mice died 8 days post inoculation. Five of 10 mice treated with 10 mg/kg/day survived the 21 day experiment. Two of 10 treated with 1 mg/kg/da survival the 21 day experiment and the remainder died an average of 10 days after inoculation."}, "[3]": {"system": "herpes simplex virus-type 1 DNA", "experiment": "Inhibition of replication of HSV-1 DNA versus cellular DNA in the same infected cells", "format": "cell-based", "conditions": "viral vs cellular DNA in the same infected cells"}, "[4]": {"system": "cytomegalovirus (CMV strain AD 169)", "experiment": "Activity against cytomegalovirus (plaque formation on WI-38 cells)", "format": "cell-based"}, "[5]": {"system": "Herpes Simplex Virus type 2", "experiment": "Inhibition of Herpes Simplex Virus type 2 replication", "format": "cell-based", "method": "as §1, §2"}, "turkey herpesvirus": {"system": "turkey herpesvirus", "experiment": "In vivo test on avian (turkey) herpesvirus in day-old chicks", "conditions": "2.5 mg FIAC per 50 g chick at intervals", "method": "In vivo tests were run to determine the effect of FIAC on avian (turkey) herpesvirus. To this end, day-old chicks were infected with turkey herpesvirus and treated at intervals with 2.5 mg FIAC per 50 g chick."}, "[6]": {"experiment": "Toxicity to normal human lymphoblastoid cells", "format": "cell-based", "conditions": "read-out: concentration up to which not toxic to normal human lymphoblastoid cells", "method": "Since 1-(2-deoxy-2-fluoro-β-D-arabinofuranosyl)-5-iodocytosine was not toxic to normal human lymphoblastoid cells at concentrations of up to 10 μM, the compound is believed to affect tumor cells at concentrations 1/100th those needed to suppress normal cell replication."}, "[7]": {"system": "herpes simplex virus (HSV)", "conditions": "cited from earlier work"}, "uninfected cells": {"system": "uninfected cells", "conditions": "compared with 5-iodo (or 5-bromo)-2'-deoxyuridine; cited from earlier work"}, "L5178Y": {"system": "L5178Y", "experiment": "Cytotoxicity, 50% inhibition of growth of L5178Y cells in vitro", "format": "cell-based", "conditions": "Mus musculus, 96 hrs. incubation at 37° C., read-out: Cytoxicity ID50", "method": "Concentration required for 50% inhibition of growth of cells in vitro\nafter 96 hrs. incubation at 37° C."}, "[8]": {"conditions": "series of herpes simplex virus-types 1 and 2"}},
  "data": [
    {"smiles": "Nc1nc(=O)n([C@@H]2O[C@H](CO)[C@@H](O)[C@@H]2F)cc1I", "note": "[1-(2-deoxy-2-fluoro-β-D-arabinofuranosyl)-5-iodocytosine]", "values": [
      {"measurement": "minimal effective concentration", "setting": "[1]; Human alphaherpesvirus 1, HFEM, Patton, 2931, and F-strain HSV-1, read-out: concentration at which HSV-1 strains are effected", "value": "~0.004", "unit": "µg/mL"},
      {"measurement": "anti-viral activity", "setting": "[1]; [8]", "value": "impressive anti-viral activity"},
      {"measurement": "anti-viral activity", "setting": "herpes zoster virus", "value": "impressive anti-viral activity"},
      {"measurement": "selectivity for viral versus cellular enzymes", "setting": "[2]", "value": "selectivity was demonstrated"},
      {"measurement": "mice that survived the 21 day experiment", "setting": "HSV-1 strain 2931; 1 mg/kg/da for 5 days", "value": "Two of 10"},
      {"measurement": "average time of death after inoculation (remainder)", "setting": "HSV-1 strain 2931; 1 mg/kg/da for 5 days, untreated mice died 8 days post inoculation", "value": 10, "unit": "days"},
      {"measurement": "mice that survived the 21 day experiment", "setting": "HSV-1 strain 2931; 10 mg/kg/day for 5 days", "value": "Five of 10"},
      {"measurement": "selective inhibition of replication of viral DNA", "setting": "[3]", "value": "selectively inhibit the replication of herpes simplex virus-type 1 DNA but not cellular DNA"},
      {"measurement": "sensitivity of cytomegalovirus to anti-viral effect", "setting": "[4]", "value": "sensitive"},
      {"measurement": "minimal effective concentration", "setting": "[5]; Human alphaherpesvirus 2, 333 and G-strain HSV-2, read-out: concentration at which HSV-2 strains are effected", "value": "~0.004", "unit": "µg/mL"},
      {"measurement": "anti-viral activity", "setting": "[5]; [8]", "value": "impressive anti-viral activity"},
      {"measurement": "effect on virus induced leukopenia / inhibition of the virus", "setting": "turkey herpesvirus", "value": "brought the virus induced leukopenia back to the levels of the control uninfected chicks and thus inhibited the virus"},
      {"measurement": "MNTC", "setting": "[6]", "value": "> 10", "unit": "µM"}
    ]},
    {"smiles": "Nc1nc(=O)n([C@H]2C[C@H](O)[C@@H](CO)O2)cc1Br", "note": "[5-Bromo-2'-deoxycytidine]", "values": [
      {"measurement": "inhibition of HSV replication", "setting": "[7]", "value": "as effectively as their corresponding deoxyuridine analogs"},
      {"measurement": "toxicity to uninfected cells", "setting": "uninfected cells", "value": "less toxic to uninfected cells"}
    ]},
    {"smiles": "Nc1nc(=O)n([C@H]2C[C@H](O)[C@@H](CO)O2)cc1I", "note": "[5-iodo-2'-deoxycytidine]", "values": [
      {"measurement": "inhibition of HSV replication", "setting": "[7]", "value": "as effectively as their corresponding deoxyuridine analogs"},
      {"measurement": "toxicity to uninfected cells", "setting": "uninfected cells", "value": "less toxic to uninfected cells"}
    ]},
    {"smiles": "Nc1ccn([C@@H]2O[C@H](CO)[C@@H](O)[C@@H]2F)c(=O)n1", "note": "[IVa, 1-(2-deoxy-2-fluoro-β-D-arabinofuranosyl)cytosine, reference compound]", "values": [
      {"measurement": "IC50", "setting": "L5178Y", "value": 0.05, "unit": "µg/mL"}
    ]},
    {"smiles": "Nc1nc(=O)n([C@@H]2O[C@H](CO)[C@@H](O)[C@@H]2F)cc1F", "note": "[IVb, 1-(2-deoxy-2-fluoro-β-D-arabinofuranosyl)-5-fluorocytosine]", "values": [
      {"measurement": "IC50", "setting": "L5178Y", "value": 0.5, "unit": "µg/mL"}
    ]},
    {"smiles": "Nc1nc(=O)n([C@@H]2O[C@H](CO)[C@@H](O)[C@@H]2F)cc1Cl", "note": "[IVc, 1-(2-deoxy-2-fluoro-β-D-arabinofuranosyl)-5-chlorocytosine]", "values": [
      {"measurement": "IC50", "setting": "L5178Y", "value": 1.4, "unit": "µg/mL"}
    ]},
    {"smiles": "Nc1nc(=O)n([C@@H]2O[C@H](CO)[C@@H](O)[C@@H]2F)cc1Br", "note": "[IVd, 1-(2-deoxy-2-fluoro-β-D-arabinofuranosyl)-5-bromocytosine]", "values": [
      {"measurement": "IC50", "setting": "L5178Y", "value": "~10", "unit": "µg/mL"}
    ]},
    {"smiles": "Cl.Nc1nc(=O)n([C@@H]2O[C@H](CO)[C@@H](O)[C@@H]2F)cc1I", "note": "[IVe, 1-(2-Deoxy-2-fluoro-β-D-arabinofuranosyl)-5-iodocytosine hydrochloride]", "values": [
      {"measurement": "IC50", "setting": "L5178Y", "value": 48, "unit": "µg/mL"}
    ]},
    {"smiles": "O=c1ccn([C@@H]2O[C@H](CO)[C@@H](O)[C@@H]2F)c(=O)[nH]1", "note": "[Va]", "values": [
      {"measurement": "IC50", "setting": "L5178Y", "value": "> 10", "unit": "µg/mL"}
    ]},
    {"smiles": "O=c1[nH]c(=O)n([C@@H]2O[C@H](CO)[C@@H](O)[C@@H]2F)cc1F", "note": "[Vb, 1-(2-deoxy-2-fluoro-β-D-arabinofuranosyl)-5-fluorouracil]", "values": [
      {"measurement": "IC50", "setting": "L5178Y", "value": 1, "unit": "µg/mL"}
    ]},
    {"smiles": "O=c1[nH]c(=O)n([C@@H]2O[C@H](CO)[C@@H](O)[C@@H]2F)cc1Cl", "note": "[Vc, 1-(2-deoxy-2-fluoro-β-D-arabinofuranosyl)-5-chlorouracil]", "values": [
      {"measurement": "IC50", "setting": "L5178Y", "value": 1.4, "unit": "µg/mL"}
    ]},
    {"smiles": "O=c1[nH]c(=O)n([C@@H]2O[C@H](CO)[C@@H](O)[C@@H]2F)cc1Br", "note": "[Vd, 1-(2-deoxy-2-fluoro-β-D-arabinofuranosyl)-5-bromouracil]", "values": [
      {"measurement": "IC50", "setting": "L5178Y", "value": 0.9, "unit": "µg/mL"}
    ]},
    {"smiles": "O=c1[nH]c(=O)n([C@@H]2O[C@H](CO)[C@@H](O)[C@@H]2F)cc1I", "note": "[Ve, 1-(2-deoxy-2-fluoro-β-D-arabinofuranosyl)-5-iodouracil]", "values": [
      {"measurement": "IC50", "setting": "L5178Y", "value": 0.9, "unit": "µg/mL"}
    ]},
    {"smiles": "Cc1cn([C@@H]2O[C@H](CO)[C@@H](O)[C@@H]2F)c(=O)[nH]c1=O", "note": "[Vf, 1-(2-deoxy-2-fluoro-β-D-arabinofuranosyl)thymine]", "values": [
      {"measurement": "sensitivity of cytomegalovirus to anti-viral effect", "setting": "[4]", "value": "sensitive"}
    ]}
  ]
}
